From US20230381170A1, “METHOD FOR TREATING ALS/FTD THROUGH DEGRADATION OF RNA REPEAT EXPANSION” (University of Florida Research Foundation, Incorporated, priority 2020, published 2023)

Key:
(G4C2)66-No ATG-GFP mRNA = assay: Polysome profiling in HEK293T cells; type: cell-based, human; details: 200 nM
Procedure: Polysome Profiling. Polysome profiling studies were completed similarly to previously described methods (12, 30) Yang et al., 2015). Briefly, 100 mm dishes were plated with ˜3.5×10^6 HEK293T cells and batch-transfected for 5 h with 2.5 μg (G4C2)66-No ATG-GFP using Lipofectamine 3000 reagent according to manufacturer protocol. Then, cells were collected and plated overnight in 100 mm dishes with ˜2.5×10^6 HEK293T cells and treated with vehicle (DMSO, 0.5% final concentration) or 3 (200 nM). Upon 24 h treatment, cells were treated with cycloheximide (CHX, 0.1 mg/mL) and incubated for 5 min at 37° C. The medium was removed, and cells were washed by 2×7.5 mL ice cold DPBS supplemented with 0.1 mg/mL CHX. Cells were then lysed with 250 μL of ice-cold Cell Lysis Buffer [10 mM NaCl, 10 mM MgCl2, 10 mM Tris, pH 7.5, 1% Triton X-100, 1% sodium deoxycholate, 1 mM DTT supplemented with […] cycloheximide, and 0.2 U/μL RNAsin (Promega)]. The lysate obtained from 3×100 mm dishes were combined (˜500 μL final volume) and transferred to an Eppendorf tube, passed through a 21G needle several times and centrifuged for 5 min at 13,200 rpm and 4° C. The supernatant was transferred to a new tube and stored at −80° C. until further use. Cell lysates were then loaded on 10-50% sucrose gradients (prepared in 20 mM HEPES, pH 7.4, 100 mM KCl, 5 mM MgCl2, 3 mM DTT, and 0.1 mg/mL CHX) and separated at 40000 rpm for 2 h at 4° C. […] The levels of (G4C2)66-No ATG-GFP mRNA in each fraction were measured by qPCR as described above with primers specific for GFP (non-canonical translation), GAPDH, respectively (canonical translation) (Table 1). Data from vehicle- and compound-treated samples were normalized as follows: triplicate Ct values were averaged and ΔCt values were calculated; ΔΔCt values were afforded by comparing treated to untreated ΔCt values. […]

C9orf72 intron 1 = C9orf72 intron 1 RT-qPCR in LCLs from a healthy donor; type: cell-based, human
Procedure: Measuring Levels of C9orf72 and C9orf72 Variants by RT-qPCR. LCLs were seeded in 6-well plate (˜10^6 cells in 2 mL of growth medium) and incubated overnight at 37° C. Cells were then treated with various concentrations of compound for 24 h or with G4C2-ASO and Control-ASO (100 nM), delivered by transfection with Lipofectamine RNAiMax. RNA was extracted as described above and the expression of C9orf72 variants was determined by RT-qPCR. […] For compound treatment well, medium change was performed with fresh compound every 3-4 days. RNA was extracted as described above and the expression of C9orf72 variants was determined by RT-qPCR.

[1] = tested on: transcripts containing short, non-pathogenic r(G4C2) repeats; assay: Off-target RT-qPCR of genes with short r(G4C2) repeats in patient-derived LCL; type: cell-based, human; details: 500 nM
C9orf72 transcripts = assay: C9orf72 variants by RT-qPCR in brain of +/+PWR500 C9orf72 BAC mice; type: in vivo, mouse; details: three weeks
Procedure: Therapeutic Efficacy in a c9ALS/FD mouse model. All animal studies were completed as approved by the Scripps Florida Institutional Animal Care and Use Committee. A total of 24 mice (12+/+PWR500 [7 Male and 5 Female] and 12 WT [6 Male and 6 Female]) mice, age- and gender-matched and ranging in age from 18-22 weeks old were used in therapeutic efficacy studies (Table 6). Mice were anesthetized by intraperitoneal (i.p.) injection of 10 mg/mL Ketamine:1 mg/mL Xylazine solution. Intracerebroventricular (ICV) stereotactic injections of 10 μL of 7 (33 nmol) were administered into the right ventricle using the following coordinates: 0.2 mm posterior and 1.0 mm lateral to the right from the bregma and 3 mm deep. Mice were treated with 7 or vehicle consisting of 1% DMSO in Saline. Three weeks post-treatment, mice were euthanized, and tissue was harvested for study.
Measuring C9orf72 Variants by RT-qPCR. Postmortem brain tissue was harvested and sliced along the midline. The left hemisphere was frozen for RNA and protein analysis. The left hemisphere of each brain was homogenized in 300 μL ice cold Tris-EDTA buffer with 2× protease inhibitors. 150 μL of homogenized tissue was used for RNA extraction. 450 μL of triazol LS was added to the homogenized tissue and centrifuged for 15 min at 16,000 rpm. Following centrifugation, supernatant was collected and an equal volume (600 μL) of 100% ethanol was added and mixed thoroughly. RNA was purified using a Direct-zol RNA Kit (Zymo Research) per the manufacturer's protocol. RT-qPCR was performed as described above. Expression levels of mRNAs were normalized to mouse (3-actin. See Table 2 for a list of primers. Statistical analysis was measured using an unpaired t-test with Welch's correction.

Compound	increase of transcript abundance in low-molecular-weight (LMW) fractions ((G4C2)66-No ATG-GFP mRNA)	polysome loading of GAPDH (control transcript) ((G4C2)66-No ATG-GFP mRNA)	reduction of transcript loaded into high-molecular-weight (HMW) polysome fractions ((G4C2)66-No ATG-GFP mRNA)	C9orf72 intron 1 levels (C9orf72 intron 1)	abundance of eight transcripts with short r(G4C2) repeats [1]	C9orf72 exon 1b RNA levels (C9orf72 transcripts; 33 nmol ICV)	all C9orf72 transcripts (exon 2-exon 3 junction) (C9orf72 transcripts; 33 nmol ICV)	reduction of r(G4C2)exp-containing intron 1 mRNA (C9orf72 transcripts; 33 nmol single ICV injection, compared to vehicle)
Cc1c2ccncc2c(C)c2c1[nH]c1ccc(OCCOCCOCCNCCOCCOCCOc3ccc4[nH]c5c(C)c6ccncc6c(C)c5c4c3)cc12 [Compound 3]	17±1%	no effect	22±2%					
CCOC(=O)C1=C(Nc2ccccc2)S/C(=C\c2ccc(OCCOCCOCCOCCNC(=O)CCC(=O)N(CCOCCOCCOc3ccc4[nH]c5c(C)c6ccncc6c(C)c5c4c3)CCOCCOCCOc3ccc4[nH]c5c(C)c6ccncc6c(C)c5c4c3)c(O)c2)C1=O [Compound 7]				did not affect	No decrease	not altered	reduced	44±22%
